Patent US12171743B2, “Forms of aticaprant” (Janssen Pharmaceuticals, Inc., priority 2022, dated 2024)

System: subjects with MDD
Test: HAM-A6 total score (anxiety), same study
Type: in vivo, human
Conditions: Treatment Week 6
Source text: The secondary objectives are: • i. […] To investigate the effect of aticaprant versus placebo on depression related anhedonia as assessed by the SHAPS. • iv. To investigate the effect of aticaprant on symptoms of depression using the Clinical Global Impression-Severity (CGI-S), the patient reported Symptoms of Major Depressive Disorder Scale (SMDDS) and the self-assessment of treatment experience (SATE). • V. To investigate the effect of aticaprant on symptoms of anxiety using the HAM-A and on core symptoms of anxiety using the HAM-A6 subscale. • vi. To assess the plasma PK of aticaprant in subjects with MDD and explore its relationship with efficacy and safety parameters.
• (i) Depression: Montgomery-Åsberg Depression Rating Scale (MADRS), Clinical Global Impression-Severity (CGI-S), Symptoms of Major Depressive Disorder Scale (SMDDS), and Self-assessment of treatment experience (SATE) • (ii) Anhedonia: Snaith-Hamilton Pleasure Scale (SHAPS) • (iii) Anxiety: Structured Interview Guide for the Hamilton Anxiety scale (SIGH-A) and HAM-A6 • (iv) Effects on Cognition: The Cognitive and Physical Functioning Questionnaire (CPFQ) • (v) Safety assessments

`Cc1cc(C)cc(C2CCCN2Cc2ccc(Oc3ccc(C(N)=O)cc3F)cc2)c1` (centres unmarked) [aticaprant, 3-fluoro-4-4-2-(3,5-dimethylphenyl) pyrrolidin-1-yl-methylphenoxybenzamide] was tested, and the “HAM-A6 score, aticaprant treated patients vs. placebo (in words)” value was “greater improvement” and the “Change from Treatment Baseline in HAM-A6 Total Score: Arithmetic Mean (SD)” value (aticaprant 10 mg, 59 subjects analyzed) was −2.73 ± 2.651 scores on a scale.
